From ChEMBL document CHEMBL3817846, “Isomeric iodinated analogs of nimesulide: Synthesis, physicochemical characterization, cyclooxygenase-2 inhibitory activity, and transport across Caco-2 cells” (Bioorg Med Chem, 2016)

Key:
[1] = Stability in Balb/cCrSlc mouse plasma assessed as parent compound remaining up to 120 mins by HPLC analysis; format: ADME, cell-free; conditions: read-out: Stability
[2] = Octanol-water partition coefficient, log P of compound at pH 7.4 by reverse phase HPLC analysis; format: physicochemical
[3] = Acid dissociation constant, pKa of compound at 20 ug/ml at pH 5.6 to 6.8 by micro-scale spectrophotometric method; format: physicochemical
[4] = target: T1, Prostaglandin G/H synthase 1 (Ovis aries, UniProt P05979); experiment: Inhibition of heme catalyzed hydroperoxidase activity of ovine COX-1 using arachidonic acid as substrate preincubated for 5 mins followed by substrate addition measured after 5 mins by TMPD oxidation based colorimetric assay
T1 sequence (P05979 whole entry): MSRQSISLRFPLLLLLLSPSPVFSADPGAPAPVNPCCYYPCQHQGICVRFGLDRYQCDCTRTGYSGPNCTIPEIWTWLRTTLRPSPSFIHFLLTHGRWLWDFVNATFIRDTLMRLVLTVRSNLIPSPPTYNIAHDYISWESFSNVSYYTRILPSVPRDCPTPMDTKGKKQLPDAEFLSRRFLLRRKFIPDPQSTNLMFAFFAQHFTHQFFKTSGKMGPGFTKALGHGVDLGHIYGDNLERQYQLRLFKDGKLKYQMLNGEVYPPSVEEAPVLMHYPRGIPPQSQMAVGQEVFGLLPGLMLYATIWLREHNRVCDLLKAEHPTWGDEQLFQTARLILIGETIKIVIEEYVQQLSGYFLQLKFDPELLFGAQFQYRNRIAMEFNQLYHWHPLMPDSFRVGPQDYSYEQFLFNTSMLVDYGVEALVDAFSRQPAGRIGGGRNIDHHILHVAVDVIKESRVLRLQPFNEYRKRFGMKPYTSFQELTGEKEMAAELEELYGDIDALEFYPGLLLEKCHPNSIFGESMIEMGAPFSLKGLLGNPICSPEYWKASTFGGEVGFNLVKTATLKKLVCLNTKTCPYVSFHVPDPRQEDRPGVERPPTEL

[5] = target: T2, Prostaglandin G/H synthase 2 (Ovis aries, UniProt P79208); experiment: Inhibition of heme catalyzed hydroperoxidase activity of ovine COX-2 using arachidonic acid as substrate preincubated for 5 mins followed by substrate addition measured after 5 mins by TMPD oxidation based colorimetric assay
T2 sequence (P79208 whole entry): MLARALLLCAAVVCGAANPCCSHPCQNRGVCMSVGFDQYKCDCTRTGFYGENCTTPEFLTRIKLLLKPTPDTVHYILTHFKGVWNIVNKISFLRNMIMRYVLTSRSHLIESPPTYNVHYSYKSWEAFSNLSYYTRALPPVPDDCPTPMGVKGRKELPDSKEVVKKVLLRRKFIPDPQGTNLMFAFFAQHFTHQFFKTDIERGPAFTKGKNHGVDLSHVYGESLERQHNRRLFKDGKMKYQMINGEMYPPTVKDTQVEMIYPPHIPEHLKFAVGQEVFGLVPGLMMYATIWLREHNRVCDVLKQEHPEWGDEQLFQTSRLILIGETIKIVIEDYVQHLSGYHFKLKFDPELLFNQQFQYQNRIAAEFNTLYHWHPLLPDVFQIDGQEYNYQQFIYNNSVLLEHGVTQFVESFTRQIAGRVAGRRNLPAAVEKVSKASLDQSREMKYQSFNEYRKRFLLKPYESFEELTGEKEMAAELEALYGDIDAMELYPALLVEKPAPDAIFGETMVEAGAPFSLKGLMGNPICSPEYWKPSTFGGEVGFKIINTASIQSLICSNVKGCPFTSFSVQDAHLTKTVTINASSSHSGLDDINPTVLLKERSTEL

[6] = Apparent permeability from apical to basolateral side in human Caco2 cells at 1 uM after 1 to 2 hrs by LC-MS analysis; format: ADME, cell-based; conditions: Caco-2
[7] = Apparent permeability from basolateral to apical side in human Caco2 cells at 1 uM after 1 to 2 hrs by LC-MS analysis; format: ADME, cell-based; conditions: Caco-2
[8] = Efflux ratio of permeability from basolateral to apical side over apical to basolateral side in human Caco2 cells at 1 uM after 1 to 2 hrs by LC-MS analysis; format: ADME, cell-based; conditions: Caco-2
[9] = Apparent permeability from apical to basolateral side in human Caco2 cells at 10 uM after 1 to 2 hrs by LC-MS analysis; format: ADME, cell-based; conditions: Caco-2
[10] = Apparent permeability from basolateral to apical side in human Caco2 cells at 10 uM after 1 to 2 hrs by LC-MS analysis; format: ADME, cell-based; conditions: Caco-2
[11] = Efflux ratio of permeability from basolateral to apical side over apical to basolateral side in human Caco2 cells at 10 uM after 1 to 2 hrs by LC-MS analysis; format: ADME, cell-based; conditions: Caco-2

Row | SMILES | remaining at 2 h [1] | logP [2] | pKa [3] | IC50 [4] | IC50 [5] | Papp A→B at 1 µM [6] | Papp B→A at 1 µM [7] | efflux ratio at 1 µM [8] | Papp A→B at 10 µM [9] | Papp B→A at 10 µM [10] | efflux ratio at 10 µM [11]
1 | CS(=O)(=O)Nc1ccc([N+](=O)[O-])cc1Oc1ccccc1 [NIMESULIDE] | 98% | – | 6.57 | – | – | – | – | – | – | – | –
2 | CS(=O)(=O)Nc1ccc([N+](=O)[O-])cc1Oc1ccccc1I | 95% | 2.11 | 6.57 | > 100 µM | > 100 µM | 30.1 ×10⁻⁶ cm/s | 21.9 ×10⁻⁶ cm/s | 0.72 | 33.8 ×10⁻⁶ cm/s | 26.4 ×10⁻⁶ cm/s | 0.78
3 | CS(=O)(=O)Nc1ccc([N+](=O)[O-])cc1Oc1cccc(I)c1 | 98.4% | 2.72 | 6.74 | > 100 µM | > 100 µM | 31.4 ×10⁻⁶ cm/s | 26.4 ×10⁻⁶ cm/s | 0.84 | 27 ×10⁻⁶ cm/s | 18 ×10⁻⁶ cm/s | 0.67
4 | COc1ccccc1Oc1cc([N+](=O)[O-])ccc1NS(C)(=O)=O | 97.6% | – | 7.07 | – | – | – | – | – | – | – | –

Other lines, results leading:

Row | remaining at 2 h [1] | logP [2] | pKa [3] | IC50 [4] | IC50 [5] | Papp A→B at 1 µM [6] | Papp B→A at 1 µM [7] | efflux ratio at 1 µM [8] | Papp A→B at 10 µM [9] | Papp B→A at 10 µM [10] | efflux ratio at 10 µM [11] | SMILES
5 | 97.5% | 2.77 | 6.89 | > 100 µM | 0.47 µM | 40.5 ×10⁻⁶ cm/s | 18.3 ×10⁻⁶ cm/s | 0.45 | 17.1 ×10⁻⁶ cm/s | 13.4 ×10⁻⁶ cm/s | 0.78 | CS(=O)(=O)Nc1ccc([N+](=O)[O-])cc1Oc1ccc(I)cc1
6 | 99.3% | – | 6.87 | – | – | – | – | – | – | – | – | COc1cccc(Oc2cc([N+](=O)[O-])ccc2NS(C)(=O)=O)c1
7 | 98.5% | – | 7.01 | – | – | – | – | – | – | – | – | COc1ccc(Oc2cc([N+](=O)[O-])ccc2NS(C)(=O)=O)cc1
